For one assay, the system named is SARS-CoV-2 S1. It is filed as binding.
In assay [1] the target is T1, SARS-CoV-2 SP (Severe acute respiratory syndrome coronavirus 2, UniProt P0DTC2).
Assay [2] addresses T1, SARS-CoV-2 SP. The source holds these as a separate data set.

On to WNLDLSQWLPPM [P1-phage], for which the “binding to SARS-CoV-2 S1” value in the assay on SARS-CoV-2 S1 is given as “may also bind to SARS-CoV-2 S1 loosely”. For the same sequence, the “binding to SARS-CoV-2 SP (absorbance)” value at SARS-CoV-2 SP [1] was “higher absorbance value and was significantly higher than that of the control”.
As for WNLDLSQWLPPM [P1], the “frequency of peptide sequence among sequenced phage monoclonals” value at SARS-CoV-2 SP [2] is reported as 16/30.
